Results on 1 molecule are retold here after US8475862B2, “Isothiocyanate preservatives and methods of their use” (The Procter & Gamble Company, priority 2003, dated 2013).

Series [1] is described as follows: Moisture sensitivity test: isothiocyanate suspended in aqueous phosphate buffer, level measured by supercritical fluid chromatography. In kind it is physicochemical. The settings on record: white mustard essential oil suspended in aqueous phosphate buffer, pH about 3.6, about 20-23° C. How it is done: As used herein, the term “moisture-sensitive” means that the isothiocyanate compound degrades in the presence of water. This degradation proceeds via a hydrolysis reaction, thereby leading to a reduction in level of the active isothiocyanate antimicrobial agent with time of storage in the presence of water. The method for determining moisture sensitivity is set forth in the Test Method section below. […]
These solutions are analyzed by supercritical fluid chromatography using the method described by Buskov, S. et al., “Supercritical fluid chromatography as a method of analysis for the determination of 4-hydroxybenzylglucosinolate degradation products,” Journal of Biochemical and Biophysical Methods, Vol. 43, pp 157-174 (2000) with the following modifications. […] The eluate is detected at 226 and 252 nm. […]
Moisture-sensitive isothiocyanate compounds are identified by suspending the isothiocyanate containing material in an aqueous phosphate buffer (pH of about 3.6) at room temperature. […] The extraction procedure is repeated after 24 hours and the level of residual isothiocyanate compound is measured by supercritical fluid chromatography. […]

The test system of series [2] is four lactic acid spoilage bacteria (Lactobacillus fructivorans, L. fermentum, L. plantar and L. hilgardii). Kind of series: Ketchup spoilage challenge, plate counts of inoculated lactic acid bacteria. Type of series: cell-based. The conditions noted are these: 250 CFU/gm inoculum, stored at 22° C. How it is done:
(§1) Ketchup is an acid food with a pH of 3.5-3.8 that can be cold filled at 100±20° F. in PET bottles. The product is vulnerable during filling operation at the filler, susceptible for recontamination by adventitious spoilage microorganisms such as lactic acid bacteria (LAB) and acid and preservative tolerant yeasts (APRY).
(§2) All natural tomato ketchup products were made, a first sample with sodium (ANK) and a second sample with reduced sodium (ANK-RS). Each sample was split, and to each about 150 ppm and 300 ppm 4-hydroxybenzyl isothiocyanate was added. The samples were further split (for a total of eight samples) and inoculated as follows. Microorganisms were inoculated into four samples with a cocktail consisting of four separate lactic acid spoilage bacteria (250 CFU/gm) such as Lactobacillus fructivorans, L. fermentum, L. plantar and L. hilgardii. The four remaining samples were inoculated with Zygosaccharomyces bailii—(150-200 CFU/gm) previously isolated from a ketchup spoilage incident.
(§3) A summary of the samples is as follows: • 1: ANK—150 ppm 4HBITC—inoculated with four lactic acid bacteria • 2: ANK—150 ppm 4HBITC—inoculated with Z. bailii • 3: ANK—300 ppm 4HBITC—inoculated with four lactic acid bacteria • 4: ANK—300 ppm 4HBITC—inoculated with Z. bailii • 5: ANK-RS—150 ppm 4HBITC—inoculated with four lactic acid bacteria • 6: ANK-RS—150 ppm 4HBITC—inoculated with Z. bailii • 7: ANK-RS—300 ppm 4HBITC—inoculated with four lactic acid bacteria • 8: ANK-RS—300 ppm 4HBITC—inoculated with Z. bailii
The inoculated ketchup samples were stored at 22° C. […] The lactic acid bacteria and yeasts counts were performed as described in FDA BAM manual. The plate counts were then used to identify the degree of microbial kill or stasis in the inoculated product. […] At 150 ppm, the declining trend was gradual taking 336 hours to non-detectable level for both ANK and ANK-RS. Un-inoculated controls grew to level of 1000-1500 CFU/gm. In the Z. bailii inoculated samples, counts were reduced to non-detectable level at 96 hours, both with and without 4-hydroxybenzyl isothiocyanate. However, there was no regrowth in the samples with 4-hydroxybenzyl isothiocyanate up to 336 hours (150 and 300 ppm). Regrowth was noticed around 96-108 hours ending at 1×10^6 CFU/gm in control samples without 4-hydroxybenzyl isothiocyanate.

For another series, the system named is Zygosaccharomyces bailii. Kind of series: Ketchup spoilage challenge, plate counts of inoculated yeast. The settings on record: 22° C.; for regrowth of Z. bailii up to 336 hours: controls regrew around 96-108 hours. Type of series: cell-based. How it is done: as §1, §2, §3
The inoculated ketchup samples were stored at 22° C. […] The lactic acid bacteria and yeasts counts were performed as described in FDA BAM manual. The plate counts were then used to identify the degree of microbial kill or stasis in the inoculated product. […] At 150 ppm, the declining trend was gradual taking 336 hours to non-detectable level for both ANK and ANK-RS. Un-inoculated controls grew to level of 1000-1500 CFU/gm. In the Z. bailii inoculated samples, counts were reduced to non-detectable level at 96 hours, both with and without 4-hydroxybenzyl isothiocyanate. […]

In the case of `Oc1ccc(CN=C=S)cc1` [4-hydroxybenzyl isothiocyanate], the “percent reduction in level of 4-hydroxybenzyl isothiocyanate after 24 hours” value in series [1] is listed as “about 72%”. The “time until lactic acid bacteria counts reduced to non-detectable level” value in series [2] (ANK ketchup, 150 ppm) was 336 h; in series [2] (ANK ketchup, 300 ppm), at most 96 h; in series [2] (ANK-RS (reduced sodium) ketchup, 150 ppm) it was 336 h; in series [2] (ANK-RS (reduced sodium) ketchup, 300 ppm), at most 168 h. In addition, the “time at which Z. bailii counts reduced to non-detectable level” value with Zygosaccharomyces bailii (150-200 CFU/gm inoculum, same result with and without 4-hydroxybenzyl isothiocyanate) stood at 96 h. Besides, the “regrowth of Z. bailii up to 336 hours” value in the series on Zygosaccharomyces bailii (150 ppm) and in the series with Zygosaccharomyces bailii (300 ppm) was “no regrowth” each time.
